Assays:
[1] = molecular target: T1, Human PDGFRβ, cytoplasmic domain (GST-PDGFRβ) (Homo sapiens, UniProt P09619); assay: Human PDGFRβ biochemical inhibition assay (off-chip Mobility Shift Assay)
T1 construct: made in house
Procedure, shortened: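 GST-tagged cytoplasmic domain (aa 557-1106) from baculovirus was incubated 1 h at room temperature with compound, CSKtide, ATP at Km and Mg²⁺ in HEPES buffer, pH 7.5. Phosphorylated and unphosphorylated peptide were separated by off-chip mobility shift, and the product ratio P/(P+S) gave percent inhibition.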

[2] = molecular target: T2, Human PDGFRα, cytoplasmic domain (GST-PDGFRα) (Homo sapiens, UniProt P16234); assay: Human PDGFRα biochemical inhibition assay (off-chip Mobility Shift Assay)
T2 construct: made in house
T2 sequence (P16234 550-1089 T674I): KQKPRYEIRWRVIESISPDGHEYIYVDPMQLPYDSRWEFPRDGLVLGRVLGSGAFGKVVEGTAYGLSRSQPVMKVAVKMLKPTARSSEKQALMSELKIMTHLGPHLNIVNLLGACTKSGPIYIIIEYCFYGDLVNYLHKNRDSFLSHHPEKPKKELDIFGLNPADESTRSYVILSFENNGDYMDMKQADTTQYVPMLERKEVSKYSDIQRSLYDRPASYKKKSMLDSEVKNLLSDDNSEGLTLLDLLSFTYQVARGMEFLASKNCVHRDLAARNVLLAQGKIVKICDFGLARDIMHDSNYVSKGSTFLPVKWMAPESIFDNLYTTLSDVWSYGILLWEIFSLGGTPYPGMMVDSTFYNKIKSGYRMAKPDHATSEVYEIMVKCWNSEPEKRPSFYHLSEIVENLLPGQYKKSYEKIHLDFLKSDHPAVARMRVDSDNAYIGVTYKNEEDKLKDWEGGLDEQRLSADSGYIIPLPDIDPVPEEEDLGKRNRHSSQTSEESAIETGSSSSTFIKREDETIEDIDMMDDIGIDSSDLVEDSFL

T1 sequence (P09619 with tags, fused parts or gaps): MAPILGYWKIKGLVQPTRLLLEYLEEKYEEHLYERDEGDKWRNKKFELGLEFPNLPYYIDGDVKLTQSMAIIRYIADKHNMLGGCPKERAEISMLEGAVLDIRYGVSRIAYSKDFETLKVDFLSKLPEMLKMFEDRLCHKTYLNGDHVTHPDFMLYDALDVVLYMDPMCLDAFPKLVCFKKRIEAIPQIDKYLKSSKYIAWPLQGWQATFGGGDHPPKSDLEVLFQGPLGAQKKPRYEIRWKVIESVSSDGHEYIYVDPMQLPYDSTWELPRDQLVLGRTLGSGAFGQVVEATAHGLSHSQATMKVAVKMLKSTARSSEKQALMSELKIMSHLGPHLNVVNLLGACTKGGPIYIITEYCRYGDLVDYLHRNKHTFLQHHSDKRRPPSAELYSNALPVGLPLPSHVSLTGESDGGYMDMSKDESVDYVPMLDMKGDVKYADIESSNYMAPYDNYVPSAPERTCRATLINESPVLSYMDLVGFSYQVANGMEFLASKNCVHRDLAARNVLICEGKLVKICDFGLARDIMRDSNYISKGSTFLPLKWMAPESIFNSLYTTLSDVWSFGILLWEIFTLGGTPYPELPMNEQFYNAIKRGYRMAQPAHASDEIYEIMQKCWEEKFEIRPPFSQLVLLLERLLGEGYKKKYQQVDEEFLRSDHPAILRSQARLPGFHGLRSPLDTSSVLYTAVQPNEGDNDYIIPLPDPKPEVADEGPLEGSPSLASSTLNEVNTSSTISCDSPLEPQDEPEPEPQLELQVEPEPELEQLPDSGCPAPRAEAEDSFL

| SMILES | IC50 [1] [nM] | IC50 [2] [nM] |
| --- | --- | --- |
| CCn1cc2ncc(N[C@@H](C)c3cccc(NC(=O)c4ccc(CN5CCCC5)nc4)c3)nc2n1 [Compound 388, (S)-N-(3-(1-((2-ethyl-2H-pyrazolo[3,4-b]pyrazin-6-yl)amino)ethyl)phenyl)-6-(pyrrolidin-1-ylmethyl) nicotinamide] | ≥ 1000 | ≥ 1000 |
| Cc1cncc(C(=O)Nc2cccc([C@H](C)Nc3cnc4cn(C)nc4n3)c2)c1 [Compound 274, (S)-5-methyl-N-(3-(1-((2-methyl-2H-pyrazolo[3,4-b]pyrazin-6-yl)amino)ethyl)phenyl)nicotinamide] | ≥ 1000 | < 300 |
| CCn1cc2ncc(N[C@@H](C)c3cccc(NC(=O)Cc4ccc(OC)c(F)c4)c3)nc2n1 [Compound 626, (S)-N-(3-(1-((2-ethyl-2H-pyrazolo[3,4-b]pyrazin-6-yl)amino)ethyl)phenyl)-2-(3-fluoro-4-methoxyphenyl) acetamide] | ≥ 1000 | < 300 |
| Cc1cncc(C(=O)Nc2cccc([C@H](C)Nc3cnc4c(n3)CCCC4)c2)c1 [Compound 44, (S)-5-methyl-N-(3-(1-((5,6,7,8-tetrahydroquinoxalin-2-yl)amino)ethyl)phenyl) nicotinamide] | ≥ 1000 | < 300 |
| CCn1cc2ncc(N[C@@H](C)c3cccc(NC(=O)c4ccc(CN(C)C)cc4)c3)nc2n1 [Compound 373, (S)-4-((dimethylamino)methyl)-N-(3-(1-((2-ethyl-2H-pyrazolo[3,4-b]pyrazin-6-yl)amino)ethyl)phenyl)benzamide] | ≥ 1000 | < 300 |
| Cc1cncc(C(=O)Nc2cccc([C@H](C)Nc3cnc4[nH]cc(C)c4n3)c2)c1 [Compound 15, (S)-5-methyl-N-(3-(1-((7-methyl-5H-pyrrolo[2,3-b]pyrazin-2-yl)amino)ethyl)phenyl)nicotinamide] | < 300 | < 300 |
| CCn1cc2ncc(N[C@@H](C)c3cccc(NC(=O)c4ccc(CN5CCN(C)CC5)nc4)c3)nc2n1 [Compound 387, (S)-N-(3-(1-((2-ethyl-2H-pyrazolo[3,4-b]pyrazin-6-yl)amino)ethyl)phenyl)-6-((4-methylpiperazin-1-yl)methyl) nicotinamide] | ≥ 1000 | < 300 |
| COc1cncc(C(=O)Nc2cccc([C@H](C)Nc3cnc4[nH]nc(C)c4n3)c2)c1 [Compound 531, (S)-5-methoxy-N-(3-(1-((3-methyl-1H-pyrazolo[3,4-b]pyrazin-5-yl)amino)ethyl)phenyl)nicotinamide] | < 300 | < 300 |
| CCn1cc2ncc(N[C@@H](C)c3cccc(NC(=O)c4cc(F)c(CN5CCN(C)CC5)c(Cl)c4)c3)nc2n1 [Compound 489, (S)-3-chloro-N-(3-(1-((2-ethyl-2H-pyrazolo[3,4-b]pyrazin-6-yl)amino)ethyl)phenyl)-5-fluoro-4-((4-methylpiperazin-1-yl)methyl)benzamide] | < 300 | < 300 |
| Cc1cncc(C(=O)Nc2cccc([C@H](C)Nc3cnc4[nH]cc(-c5cncnc5)c4n3)c2)c1 [Compound 593, (S)-5-methyl-N-(3-(1-((7-(pyrimidin-5-yl)-5H-pyrrolo [2,3-b]pyrazin-2-yl)amino)ethyl)phenyl)nicotinamide] | < 300 | < 300 |
| Cc1c[nH]c2ncc(N[C@@H](C)c3cccc(NC(=O)c4cnn(C(F)F)c4)c3)nc12 [Compound 561, (S)-1-(difluoromethyl)-N-(3-(1-((7-methyl-5H-pyrrolo[2,3-b]pyrazin-2-yl)amino)ethyl)phenyl)-1H-pyrazole-4-carboxamide] | < 300 | < 300 |
| CCn1cc2ncc(N[C@@H](C)c3cccc(NC(=O)Cc4ccc(Cl)cn4)c3)nc2n1 [Compound 681, (S)-2-(5-chloropyridin-2-yl)-N-(3-(1-((2-ethyl-2H-pyrazolo[3,4-b]pyrazin-6-yl)amino)ethyl)phenyl)acetamide] | ≥ 1000 | < 300 |
| CCn1cc2ncc(N[C@@H](C)c3cccc(NC(=O)c4ccc(CN5CCC(F)(F)CC5)c(C)c4)c3)nc2n1 [Compound 476, (S)-4-((4,4-difluoropiperidin-1-yl)methyl)-N-(3-(1-((2-ethyl-2H-pyrazolo[3,4-b]pyrazin-6-yl)amino)ethyl)phenyl)-3-methylbenzamide] | 300 to 1000 | < 300 |
| Cc1cncc(C(=O)Nc2cccc([C@H](C)Nc3cnc4ccc(Br)cc4n3)c2)c1 [Compound 39, (S)-N-(3-(1-((7-bromoquinoxalin-2-yl)amino)ethyl)phenyl)-5-methylnicotinamide] | < 300 | < 300 |
| CCn1cc2ncc(N[C@@H](C)c3cccc(NC(=O)Cc4ccc(C)cn4)c3)nc2n1 [Compound 25, (S)—N-(3-(1-((2-ethyl-2H-pyrazolo[3,4-b]pyrazin-6-yl)amino)ethyl)phenyl)-2-(5-methylpyridin-2-yl)acetamide] | ≥ 1000 | < 300 |
| C[C@H](Nc1cnc2cnn(C)c2n1)c1cccc(NC(=O)c2ccc(C(F)(F)F)nc2)c1 [Compound 115, (S)-N-(3-(1-((1-methyl-1H-pyrazolo[3,4-b]pyrazin-6-yl)amino)ethyl)phenyl)-6-(trifluoromethyl)nicotinamide] | < 300 | < 300 |
| C[C@H](Nc1cnc2cnn(C)c2n1)c1cccc(NC(=O)c2cncc(S(C)(=O)=O)c2)c1 [Compound 227, (S)-N-(3-(1-((1-methyl-1H-pyrazolo[3,4-b]pyrazin-6-yl)amino)ethyl)phenyl)-5-(methylsulfonyl)nicotinamide] | < 300 | < 300 |
| CCn1cc2ncc(N[C@@H](C)c3cccc(NC(=O)c4ccc(C(=O)N5CC[C@@H](N)C5)c(Cl)c4)c3)nc2n1 [Compound 467, 4-((R)-3-aminopyrrolidine-1-carbonyl)-3-chloro-N-(3-((5)-1-((2-ethyl-2H-pyrazolo[3,4-b]pyrazin-6-yl)amino)ethyl)phenyl)benzamide] | ≥ 1000 | < 300 |
| C[C@H](Nc1cnc2cnn(C)c2n1)c1cccc(NC(=O)c2cnn(C3CC3)c2)c1 [Compound 150, (S)-1-cyclopropyl-N-(3-(1-((1-methyl-1H-pyrazolo[3,4-b]pyrazin-6-yl)amino)ethyl)phenyl)-1H-pyrazole-4-carboxamide] | < 300 | < 300 |

Other lines, results leading:

| IC50 [1] [nM] | IC50 [2] [nM] | SMILES |
| --- | --- | --- |
| < 300 | < 300 | CCn1cc2ncc(N[C@@H](C)c3cc(NC(=O)c4ccc(CN5CCN(C)CC5)c(Cl)c4)ccc3F)nc2n1 [Compound 429, (S)-3-chloro-N-(3-(1-((2-ethyl-2H-pyrazolo[3,4-b]pyrazin-6-yl)amino)ethyl)-4-fluorophenyl)-4-((4-methylpiperazin-1-yl)methyl)benzamide] |
| < 300 | < 300 | CCn1cc2ncc(N[C@@H](C)c3cc(NC(=O)c4cnn(C5CC5)c4)ccc3F)nc2n1 [Compound 312, (S)-1-cyclopropyl-N-(3-(1-((2-ethyl-2H-pyrazolo[3,4-b]pyrazin-6-yl)amino)ethyl)-4-fluorophenyl)-1H-pyrazole-4-carboxamide] |
| 300 to 1000 | < 300 | CCn1cc2ncc(N[C@@H](C)c3cc(NC(=O)Cc4cncc(C)c4)ccc3F)nc2n1 [Compound 652, (S)-N-(3-(1-((2-ethyl-2H-pyrazolo[3,4-b]pyrazin-6-yl)amino)ethyl)-4-fluorophenyl)-2-(5-methylpyridin-3-yl) acetamide] |
| 300 to 1000 | < 300 | CCn1cc2ncc(N[C@@H](C)c3cccc(NC(=O)Nc4cnc(NC)c(C)c4)c3)nc2n1 [Compound 743, (S)-1-(3-(1-((2-ethyl-2H-pyrazolo[3,4-b]pyrazin-6-yl)amino)ethyl)phenyl)-3-(5-methyl-6-(methylamino)pyridin-3-yl)urea] |
| < 300 | < 300 | CCn1cc2ncc(N[C@@H](C)c3cc(NC(=O)Cc4cncc(Cl)c4)ccc3C)nc2n1 [Compound 673, (S)-2-(5-chloropyridin-3-yl)-N-(3-(1-((2-ethyl-2H-pyrazolo[3,4-b]pyrazin-6-yl)amino)ethyl)-4-methylphenyl)acetamide] |
| < 300 | < 300 | CCn1cc2ncc(N[C@@H](C)c3cccc(NC(=O)c4ccc(CN5CC[C@@H](F)C5)c(C)c4)c3)nc2n1 [Compound 469, N-(3-((S)-1-((2-ethyl-2H-pyrazolo[3,4-b]pyrazin-6-yl)amino)ethyl)phenyl)-4-(((R)-3-fluoropyrrolidin-1-yl)methyl)-3-methylbenzamide] |
| < 300 | < 300 | CCn1cc2ncc(N[C@@H](C)c3cc(NC(=O)c4cnc(C5CC5)c(C)c4)ccc3F)nc2n1 [Compound 322, (S)-6-cyclopropyl-N-(3-(1-((2-ethyl-2H-pyrazolo[3,4-b]pyrazin-6-yl)amino)ethyl)-4-fluorophenyl)-5-methylnicotinamide] |
| < 300 | < 300 | CCn1cc2ncc(N[C@@H](C)c3cccc(NC(=O)c4ccc(CN5CC(F)C5)c(Cl)c4)c3)nc2n1 [Compound 495, (S)-3-chloro-N-(3-(1-((2-ethyl-2H-pyrazolo[3,4-b]pyrazin-6-yl)amino)ethyl)phenyl)-4-((3-fluoroazetidin-1-yl)methyl) benzamide] |
| < 300 | < 300 | CCn1cc2ncc(N[C@@H](C)c3cccc(NC(=O)c4cnc(C(F)F)c(C)c4)c3)nc2n1 [Compound 353] |
| ≥ 1000 | ≥ 1000 | CCn1cc2ncc(N[C@@H](C)c3cccc(NC(=O)c4cnc(OC)s4)c3)nc2n1 [Compound 325, (S)-N-(3-(1-((2-ethyl-2H-pyrazolo[3,4-b]pyrazin-6-yl)amino)ethyl)phenyl)-2-methoxythiazole-5-carboxamide] |
| < 300 | < 300 | CCn1cc2ncc(N[C@@H](C)c3cc(NC(=O)c4cc(F)c(CN5CCOCC5)c(Cl)c4)ccc3C)nc2n1 [Compound 520, (S)-3-chloro-N-(3-(1-((2-ethyl-2H-pyrazolo[3,4-b]pyrazin-6-yl)amino)ethyl)-4-methylphenyl)-5-fluoro-4-(morpholinomethyl) benzamide] |
